Measurements taken from paper PMC6478789, “A chemical toolbox for the study of bromodomains and epigenetic signaling” (Nature Communications, 2019).
Read-outs that look alike come from different tables or passages of the source. One block for each compound: values may come before it.

What was measured:
Experiment in all cases: BROMOscan ligand-binding assay
BRDT(2) = BRDT(2) (Homo sapiens, UniProt Q58F21)
Excerpt: (§1) BROMOscan is a binding assay based on the well-known KINOMEscan technology. This assay measures the binding of a DNA-tagged bromodomain to an immobilized BRD ligand. If an inhibitor is present, it will compete with the bromodomain binding to the immobilized ligand, resulting in reduction of a quantitative PCR (qPCR) signal in a dose-dependent manner.

BRD4(1) = BRD4(1) (Homo sapiens, UniProt O60885)
Excerpt: as §1

BRPF1 = biological target: T1, BRPF1 (Homo sapiens, UniProt P55201)
T1 sequence (P55201 628-732 limits assumed): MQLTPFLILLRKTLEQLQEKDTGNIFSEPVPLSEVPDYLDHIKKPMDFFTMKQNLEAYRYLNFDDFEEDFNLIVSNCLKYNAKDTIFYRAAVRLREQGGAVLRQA
Excerpt: as §1

CREBBP = CREBBP (Homo sapiens, UniProt Q92793)
Excerpt: as §1

TAF1L(2) = biological target: T2, TAF1L(2) (Homo sapiens, UniProt Q8IZX4)
T2 sequence (Q8IZX4 1517-1626 limits assumed): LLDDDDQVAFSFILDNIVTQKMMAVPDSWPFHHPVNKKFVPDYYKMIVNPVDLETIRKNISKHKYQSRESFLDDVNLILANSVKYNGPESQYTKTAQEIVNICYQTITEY
Excerpt: as §1

WDR9(2) = WDR9(2) (Homo sapiens, UniProt Q9NSI6)
Excerpt: as §1

BAZ2B = biological target: T3, BAZ2B (Homo sapiens, UniProt Q9UIF8)
T3 sequence (Q9UIF8 2060-2164 limits assumed): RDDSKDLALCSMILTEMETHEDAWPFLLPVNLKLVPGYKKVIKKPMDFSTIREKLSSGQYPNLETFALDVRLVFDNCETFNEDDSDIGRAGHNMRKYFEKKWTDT
Excerpt: as §1

PBRM1(5) = PBRM1(5) (Homo sapiens, UniProt Q86U86)
Excerpt: as §1

TRIM33(PHD,BRD) = biological target: T4, TRIM33(PHD,BRD) (Homo sapiens, UniProt Q9UPN9)
T4 sequence (Q9UPN9 882-1087 limits assumed): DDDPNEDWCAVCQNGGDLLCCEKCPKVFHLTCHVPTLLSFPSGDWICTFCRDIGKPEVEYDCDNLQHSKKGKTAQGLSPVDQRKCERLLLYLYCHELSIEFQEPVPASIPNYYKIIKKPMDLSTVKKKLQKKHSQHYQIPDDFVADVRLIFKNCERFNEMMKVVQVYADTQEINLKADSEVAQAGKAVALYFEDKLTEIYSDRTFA
Excerpt: as §1

SMARCA2(iso.A) = SMARCA2(iso.A) (Homo sapiens, UniProt P51531)
Excerpt: as §1

[1] = KD (BROMOscan), sheet prints no unit (nM)

Chain of CREBBP (Q92793 1085-1192 limits assumed): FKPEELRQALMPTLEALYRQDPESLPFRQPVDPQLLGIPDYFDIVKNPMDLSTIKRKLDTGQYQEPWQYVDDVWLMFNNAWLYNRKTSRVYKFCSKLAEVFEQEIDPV
Chain of SMARCA2(iso.A) (P51531 1378-1506 limits assumed): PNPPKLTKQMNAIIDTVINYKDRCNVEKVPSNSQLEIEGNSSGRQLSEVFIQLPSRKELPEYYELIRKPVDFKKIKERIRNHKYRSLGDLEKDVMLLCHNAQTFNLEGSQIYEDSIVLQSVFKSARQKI
Chain of WDR9(2) (Q9NSI6 1313-1418 limits assumed): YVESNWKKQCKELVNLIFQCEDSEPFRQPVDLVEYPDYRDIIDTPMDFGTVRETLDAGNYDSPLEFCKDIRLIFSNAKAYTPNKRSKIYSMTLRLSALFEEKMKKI
Chain of PBRM1(5) (Q86U86 653-763 limits assumed): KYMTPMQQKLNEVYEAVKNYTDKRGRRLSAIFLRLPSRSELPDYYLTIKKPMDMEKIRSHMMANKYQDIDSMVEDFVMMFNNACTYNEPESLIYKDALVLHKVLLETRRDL

SMILES: CCCS(=O)(=O)c1nc(NC2CC2)cc(-c2ccc3c(ccn3C3CC(C)(C)NC(C)(C)C3)c2)n1 [NVS-CECR2-1]
- Kd (BRDT(2)): > 30000 nM
- Kd (BRD4(1)): 21 µM
- Kd (BRPF1): 3500 nM
- Kd (CREBBP): > 30000 nM
- Kd (TAF1L(2)): 9.6 µM
- Kd (WDR9(2)): 30000 nM
- Kd (BAZ2B): > 30000 nM
- Kd (PBRM1(5)): > 30 µM
- Kd (TRIM33(PHD,BRD)): > 30000 nM

- Kd (BRDT(2); BRDT(2)): 22000 nM
- Kd (CREBBP; CREBBP): 45000 nM
- Kd (TAF1L(2); TAF1L(2)): 5.3 µM
- Kd (WDR9(2); WDR9(2)): > 50000 nM
- Kd (WDR9(2); read-out: KD (BROMOscan), sheet prints no unit (nM)): > 30000 nM
- Kd (BAZ2B; BAZ2B): 2500 nM
- Kd (PBRM1(5); PBRM1(5)): 4.5 µM
- Kd (TRIM33(PHD,BRD); TRIM33(PHD,Bromo.)): 40000 nM
SMILES: COc1cc2c(cc1NS(=O)(=O)c1ccc(Br)cc1C)n(C)c(=O)n2C [OF-1]

- Kd (BRDT(2); BROMOscan, BRDT(2)): > 30000 nM
- Kd (BRD4(1); BROMOscan, BRD4(1)): 27 µM
- Kd (BRPF1; BROMOscan, BRPF1): > 30000 nM
- Kd (CREBBP; BROMOscan, CREBBP): > 30000 nM
- Kd (TAF1L(2); BROMOscan, TAF1L(2)): > 30 µM
- Kd (WDR9(2); BROMOscan, WDR9(2)): > 30000 nM
- Kd (BAZ2B; BROMOscan, BAZ2B): > 30000 nM
- Kd (PBRM1(5); BROMOscan, PBRM1(5)): 0.036 µM
- Kd (TRIM33(PHD,BRD); BROMOscan, TRIM33(PHD,Bromo.)): > 30000 nM
SMILES: O=C(C=CN1[C@H]2CC[C@@H]1c1ncnc(NC3CC3)c1C2)c1ccccc1O [PFI-3 D1]

- Kd (BRDT(2); [1]): > 30000 nM
- Kd (BRDT(2); KD, BRDT(2)): > 100000 nM
- Kd (BRPF1; [1]): > 30000 nM
- Kd (BRPF1; KD, BRPF1): > 100000 nM
- Kd (CREBBP; [1]): > 30000 nM
- Kd (CREBBP; KD, CREBBP): > 100000 nM
- Kd (WDR9(2); [1]): > 30000 nM
- Kd (WDR9(2); KD, WDR9(2)): > 100000 nM
- Kd (BAZ2B; [1]): > 30000 nM
- Kd (BAZ2B; KD, BAZ2B): > 100000 nM
- Kd (TRIM33(PHD,BRD); [1]): > 30000 nM
- Kd (TRIM33(PHD,BRD); KD, TRIM33(PHD,Bromo.)): > 100000 nM
SMILES: O=C(C=CN1CC2CC1CN2c1ccccn1)c1ccccc1O (stereo not shown) [PFI-3]

- Kd (BRDT(2); [1]): > 30000 nM
- Kd (BRDT(2); KD, BROMOscan, BRDT(2)): > 100000 nM
- Kd (BRD4(1)): 1.1 µM
- Kd (BRPF1; KD, BROMOscan, BRPF1): 2400 nM
- Kd (SMARCA2(iso.A); [1]): > 30000 nM
- Kd (SMARCA2(iso.A); KD, BROMOscan, SMARCA2(iso.A)): > 100000 nM
- Kd (TAF1L(2)): 7.1 µM
- Kd (WDR9(2); KD, BROMOscan, WDR9(2)): 12000 nM
- Kd (BAZ2B; [1]): > 30000 nM
- Kd (BAZ2B; KD, BROMOscan, BAZ2B): > 100000 nM
- Kd (PBRM1(5); KD, BROMOscan, PBRM1(5)): 49.7 µM
- Kd (TRIM33(PHD,BRD); [1]): > 30000 nM
- Kd (TRIM33(PHD,BRD); KD, BROMOscan, TRIM33(PHD,Bromo.)): > 100000 nM
SMILES: COc1ccc(CCc2nc3cc(-c4c(C)noc4C)ccc3n2C[C@H](C)N2CCOCC2)cc1Cl [SGC-CBP30]

- Kd (BRDT(2); KD, BRDT(2)): > 1.4e+07 nM
- Kd (BRD4(1)): > 14000 µM
- Kd (BRPF1; KD, BRPF1): 4.2e+06 nM
- Kd (SMARCA2(iso.A); KD, SMARCA2(iso.A)): 950000 nM
- Kd (CREBBP; KD, CREBBP): > 1.4e+07 nM
- Kd (TAF1L(2)): > 14000 µM
- Kd (WDR9(2); KD, WDR9(2)): > 1.4e+07 nM
- Kd (BAZ2B; KD, BAZ2B): > 1.4e+07 nM
- Kd (PBRM1(5); KD, PBRM1(5)): 160 µM
- Kd (TRIM33(PHD,BRD); KD, TRIM33(PHD,Bromo.)): > 1.4e+07 nM
SMILES: O=C(O)c1ccccc1O [Salicylic Acid]
